Literature values as cited in patent US20070185063A1, “Seven-membered ring nucleosides” (Idenix Pharmaceuticals, Inc., priority 2005, published 2007).

Experiments:
HCV = conditions: ribavirin alone
[1] = test system: human granulocyte-macrophage colony-forming (CFU-GM) activity; conditions: in vitro, bone marrow cells from healthy volunteers; clinically relevant concentrations
[2] = test system: erythroid burst-forming (BFU-E) activity; conditions: in vitro, bone marrow cells from healthy volunteers; clinically relevant concentrations
[3] = in vivo

NC(=O)c1ncn([C@@H]2O[C@H](CO)[C@@H](O)[C@H]2O)n1 [Ribavirin, 1-β-D-ribofuranosyl-1-1,2,4-triazole-3-carboxamide]
effect on serum levels of HCV-RNA (HCV): does not lower serum levels of HCV-RNA
patients in whom serum amino transferase levels are reduced to normal (HCV): 40%

Cc1cn([C@H]2C[C@H](N=[N+]=[N-])[C@@H](CO)O2)c(=O)[nH]c1=O [ZDV, zidovudine]
concentration that directly inhibits CFU-GM activity [1]: 1000 to 2000 nM
concentration that directly inhibits BFU-E activity [2]: 1000 to 2000 nM

O=c1[nH]c(=O)n([C@@H]2O[C@H](CO)[C@@H](O)[C@@H]2F)cc1I [fialuridine, 1,-2′-deoxy-2′-fluoro-1-β-D-arabinofuranosyl-5-iodo-uracil]
clinical adverse events due to direct mitochondrial toxicity [3]: caused hepatic failure, pancreatitis, neuropathy, myopathy and lactic acidosis
